In one test the test system is CD70 expression. Description: CD70 expression on CD4+ cells of PBMCs cultured with lupus medications. The test is classed as cell-based, human. Conditions: 1-100 μM, 24 hours, PBMCs with or without PHA. How it is done:
(§1) Cells and cell culture. Peripheral blood mononuclear cells (PBMCs) were isolated by density-gradient centrifugation. T cells were then isolated by E-rosetting (See, e.g., Golbus et al., Clin Immunol Immunopathol 46, 129 (1988)). […] Where indicated, the cells were cultured in RPMI 1640/10% fetal calf serum (FCS) supplemented with interleukin-2 (IL-2) (See, e.g., Richardson et al., Clin Immunol Immunopathol 55, 368 (1990)), in round-bottomed 5-ml culture tubes (Falcon). Cells were stimulated with 1 μg/ml of PHA (Remel) for 16 hours, then cultured in 24-well plates at a density of 1×10^6 for an additional 72 hours in the presence of 2-deoxy-5-azaC or 5-azaC (Sigma-Aldrich), procainamide (Sigma-Aldrich), hydralazine (Sigma-Aldrich), or the MEK inhibitors U0126 (Promega) or PD98059 (Promega). In other studies, PHA-stimulated PBMCs were cultured in RPMI 1640/10% FCS and treated with indomethacin, chloroquine, hydrocortisone, and 6-mercaptopurine (6-MP) (all from Sigma-Aldrich). TT48E, a cloned, CD4+, tetanus toxoid-reactive human T cell line, was cultured as previously described (Cornacchia et al., J Immunol 140, 2197 (1988); Richardson et al., Arthritis Rheum 35, 647 (1992)).
(§2) Flow cytometric analysis. The following fluorochrome-conjugated monoclonal antibodies were obtained from BD PharMingen (San Diego, Calif.): FITC-conjugated anti-human CD70, CD2, or isotype-matched controls; phycoerythrin (PE)-conjugated anti-CD2, CD4, and CD8; and CyChromeconjugated anti-HLA-DR, CD2, and isotype controls. Staining and multicolor flow cytometric analysis were performed (See, e.g., Hale et al., Cell Immunol 220, 51 (2002)) using saturating concentrations of antibody.

The next test has as its system CD70 mRNA. Nature of the test: CD70 transcripts by real time RT-PCR in anti-CD3 + anti-CD28 stimulated CD4+ T cells. The test is classed as cell-based, human. Conditions: 5 μm 5-azaC, 50 μm Pca, 20 μm Hyd, 40 μm U0126, 25 μm PD98059, 3 days. How it is done:
(§3) In other studies, T cells were isolated by negative selection using magnetic beads and instructions provided by the manufacturer (Pan T cell Isolation Kit, Miltenyi), and the CD4+ or CD8+ subset was similarly isolated by magnetic cell sorting. Jurkat cells (E6-1) were cultured as previously described (See, e.g., Cornacchia et al., J Immunol 140:2197 (1998)). Purified human CD4+ T cells were first stimulated with plate bound anti-CD3 and soluble anti-CD28. Briefly, 24 well plates were coated with 300 μl of anti-CD3 (10 μg/ml in PBS—SouthernBiotech) 18 hours 4° C., washed, then 2×10^6 purified T cells were added to the wells in 2 ml RPMI 1640/10% FCS containing 2 μg/ml anti-CD28 (SouthernBiotech). The plates were incubated 37° C. in a humidified atmosphere containing 5% CO2 for 18-24 hours, then treated with 5 μm 5-azaC (Aldrich), 50 μm Pca (Sigma), 20 μm Hyd (Aldrich), 40 μm UO126 (Promega) or 25 μm PD98059 (Promega), and cultured for 3 additional days as described (See, e.g., Oelke et al., Arthritis Rheum 50:1850 (2004)).

For another test, the system named is T cell CD70 expression. Nature of the test: CD70 expression on PHA-stimulated T cells by flow cytometry. The test is classed as cell-based, human. As to conditions: for CD70 expression on treated vs untreated PHA-stimulated T cells: unfractionated T cells, 3 days, 1 μM 5-azaC, dose-response for procainamide, PD98059, U0126. The procedure:
as §1, §2
The panel of inhibitors used included 5-azaC, an irreversible DNA methyltransferase inhibitor (See, e.g., Glover and Leyland-Jones, Cancer Treat Rep 71, 959 (1987)) procainamide, a competitive DNA methyltransferase inhibitor (See e.g., Scheinbart et al., J Rheumatol 18, 530 (1991)), and the ERK pathway inhibitors PD98059, U0126, and hydralazine.
Studies were performed examining the effects of the DNA methylation inhibitors on CD70 expression in CD4+ and CD8+ T cell subsets.

Another test has as its system CD70 promoter. Description: Bisulfite sequencing of the CD70 promoter in CD4+ T cells. It is filed as cell-based, human. Conditions: for methylation of the 10 CG pairs between −515 and −423 of the CD70 promoter: anti-CD3 and anti-CD28 stimulated CD4+ T cells vs stimulated untreated controls. The procedure:
as §3
Bisulfite sequencing. The putative CD70 promoter was identified using the published CD70 cDNA sequence and Tfsitescan software. Deoxycytosine (dC) and deoxymethylcytosine (d^mC) bases in the gene promoter and 5′ flanking sequences were identified by bisulfite treatment of purified DNA followed by nested PCR amplification of 3 sequential fragments to span the entire region. The primers were designed to avoid CG pairs and to account for the conversion of dC to dU by the bisulfite. EcoRI sites were added to the forward primers, and XbaI to the reverse, to facilitate cloning. The amplified fragments were then cloned into PBS+, and 5 clones sequenced for each fragment. The primers used were: […]
The effect of lupus and DNA methylation inhibitors on a regulatory element in the CD70 promoter was examined. DNA was isolated from the CD4+ T cells of 7 healthy individuals or 6 lupus patients, bisulfite treated, the region from −466-−515, containing 6 CG pairs was amplified by PCR, and 5 fragments sequenced from each individual. The average methylation status of the 6 CG pairs for healthy versus lupus individuals is shown (FIG. 8, NI and Lupus, respectively). CD4+ T cells from 5 individuals were also stimulated with PHA, treated with the irreversible DNA methyltransferase inhibitor 5-azacytidine (5-azaC), and the methylation status of the 6 CG pairs similarly analyzed from the 25 fragments sequenced (FIG. 8, 5-azaC). […] Results are presented as the mean±SEM of the average methylation of the 6 CG pairs, measured from the 10-35 determinations/group.
The effects of the DNA methylation inhibitors on the methylation status of this region were then compared. […] Again, 5 cloned fragments were sequenced from each control, for a total of 35 determinations per CG pair. […] FIG. 14 compares the average methylation for the 10 CG pairs (−515 to −423) in the T cells treated with DNA methylation inhibitors relative to stimulated, untreated controls.

In test [1] the target is KIR3DL1 on human T cells (human) (UniProt P43629). Nature of the test: cell-based or functional assay.
Chain of KIR3DL1 on human T cells (human) (P43629 22-444): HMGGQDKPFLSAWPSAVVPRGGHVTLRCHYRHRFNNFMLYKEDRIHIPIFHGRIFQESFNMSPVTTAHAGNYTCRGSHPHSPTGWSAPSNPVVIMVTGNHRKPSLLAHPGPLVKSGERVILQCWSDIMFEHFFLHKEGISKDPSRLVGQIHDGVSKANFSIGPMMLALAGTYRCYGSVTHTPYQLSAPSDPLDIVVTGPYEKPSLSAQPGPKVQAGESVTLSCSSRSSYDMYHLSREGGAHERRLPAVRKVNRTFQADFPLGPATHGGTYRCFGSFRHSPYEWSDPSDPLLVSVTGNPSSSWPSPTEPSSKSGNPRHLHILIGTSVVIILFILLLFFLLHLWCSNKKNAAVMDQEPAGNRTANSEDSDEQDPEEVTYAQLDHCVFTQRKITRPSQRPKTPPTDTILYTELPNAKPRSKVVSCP
Another test deals with T cell genes. Conditions: PHA-stimulated T cells, 2-deoxy-5-azaC.

Take `Sc1ncnc2nc[nH]c12` [6-MP, 6-mercaptopurine]: the “CD70 expression on stimulated or unstimulated CD4+ cells” value in the test on CD70 expression is reported as “No increase in CD70 expression was seen”.

`CCN(CC)CCCC(C)Nc1ccnc2cc(Cl)ccc12` (stereo not drawn) [chloroquine]: the “CD70 expression on stimulated or unstimulated CD4+ cells” value with CD70 expression is listed as “No increase in CD70 expression was seen”.

Take `CCN(CC)CCNC(=O)c1ccc(N)cc1` [procainamide]: the “CD70 transcripts relative to β-actin, treated vs untreated” value in the test with CD70 mRNA is “increase CD70 transcripts”. Moreover, in the test with T cell CD70 expression, the “CD70 expression on CD4+ T cells” value is “increased CD70 expression on CD4+ T cells” and the “CD70 expression on treated vs untreated PHA-stimulated T cells” value is “increase in the ratio of the mean fluorescence intensity (MFI) of CD70 expression”. Further, the “methylation of the CD70 promoter region −466-−515 (6 CG pairs)” value in the test on CD70 promoter (PHA-stimulated CD4+ T cells) is on record as “demethylate this region”. The “methylation of the 10 CG pairs between −515 and −423 of the CD70 promoter” value in the test with CD70 promoter is listed as “appears to demethylate”.

Consider `C[C@]12CCC(=O)C=C1CC[C@@H]1[C@@H]2[C@@H](O)C[C@@]2(C)[C@H]1CC[C@]2(O)C(=O)CO` [hydrocortisone], for which the “CD70 expression on stimulated or unstimulated CD4+ cells” value in the test on CD70 expression is given as “No increase in CD70 expression was seen”.

Regarding “anti-NKB1 (KIR3DL1) antibody (BD PharMingen)”, the % cytotoxicity (51Cr release from autologous monocytes/macrophages) (% cytotoxicity) in test [1] came out at 37.

As for `COc1ccc2c(c1)c(CC(=O)O)c(C)n2C(=O)c1ccc(Cl)cc1` [indomethacin], in the test with CD70 expression, the “CD70 expression on stimulated or unstimulated CD4+ cells” value is listed as “No increase in CD70 expression was seen”.

As to `COc1cccc(-c2cc(=O)c3ccccc3o2)c1N` [PD98059], the “CD70 transcripts relative to β-actin, treated vs untreated” value in the test on CD70 mRNA is recorded as “increase CD70 transcripts”. In addition, the “increase of CD70 MFI on CD4+ T cells” value in the test with T cell CD70 expression (25 μM PD98059, n=3, P=0.032) turned out to be 1.63±0.43 fold. Moreover, in the test with T cell CD70 expression, the “CD70 expression on CD4+ T cells” value is on record as “increased CD70 expression on CD4+ T cells” and the “CD70 expression on treated vs untreated PHA-stimulated T cells” value is “increase in CD70 expression with treatment”. In the test on CD70 promoter, the “methylation of the 10 CG pairs between −515 and −423 of the CD70 promoter” value is “appears to demethylate”.

For the compound `Nc1ncn([C@H]2C[C@H](O)[C@@H](CO)O2)c(=O)n1` [2-deoxy-5-azaC], the “CD70 expression increase in treated cells relative to untreated controls” value with T cell genes (3 days, oligonucleotide arrays, mean±SEM, 2 independent experiments) was found to be 2.6±0.6 fold. In the test on T cell genes (treated vs untreated), the “genes decreased ≧2-fold” value came out at 12 genes and the “genes reproducibly increased ≧2-fold” value was 118 genes.
